Experimental data: patent US7132427B2, “Quinazolines and uses thereof” (Ariad Pharmaceuticals, Inc., priority 2001, dated 2006)

Assay: Hydroxyapatite assay (hydroxyapatite adsorption chromatography, bone-targeting potential)
Assay type: physicochemical
Conditions: K=(retention time-void time)/void, corrected using two reference compounds; TSK-Gel HA 1000 HPLC column; linear gradient 10 mM to 500 mM sodium phosphate, 0.15 N NaCl, pH 6.8
Protocol: Hydroxyapatite is the principal mineral component of bone. Hydroxyapatite adsorption chromatography is used as an assay to evaluate the bone-targeting potential of both individual bone-targeting moieties (“monomers”) and of pharmaceuticals incorporating bone-targeting groups.
Method: The rentention time of a test compound is measured using a linear gradient from 10 mM sodium phosphate, 0.15 N NaCl, pH=6.8 to 500 mM sodium phosphate, 0.15 N NaCl, […] on a TSK-Gel HA 1000 high pressure liquid chromatography column (7.5 mm×75 mm). The rentention time of the compound is expressed in terms of K=(retention time-void time)/void. This K value is corrected using two reference compounds to correct from inter-column and inter-system variation to obtain a K′ value.
Reference Compounds: K′ values were determined for known bone targeted compounds, the bisphosphonate, alendronate and tetracycline.

K′ value: 3.7
SMILES: NCCCC(O)(P(=O)(O)O)P(=O)(O)O [Alendronate, alendronate]
